Source: patent publication US8293773B2, “1, 2, 3-triazole derivatives as new cannabinoid-1 receptor antagonists” (National Tsing Hua University, priority 2008, dated 2012)

Target: T1, human CB1 receptor (Homo sapiens, UniProt P21554)
T1 construct: expressed in transfected cells; membrane-enriched fractions
Assay: competitive radioligand binding assay, displacement of [3H]CP55,940, CB1
Details: Table 1; percent inhibition at 10 μM
Method: In addition, the affinity of test compounds of this invention toward CB1 and CB2 receptors was determined by competitive radioligand binding assays in vitro. This method differentiates the binding strength between compounds by their abilities in displacing a receptor-specific radioactive ligand. […] The readings of the radioactivity retained allow further analysis of receptor binding, and assist in predictions of the pharmacological activities of the test compounds.
In the assays, CB1 receptors are from human CB1 stably expressed cell lines, and CB2 receptors are from human CB2 stably expressed cell lines. For purification of membrane-enriched fractions, cells were scraped off from the culture dishes in ice-cold buffer A (50 mM Tris, 5 mM MgCl2, 2.5 mM EDTA, pH 7.4, 10% sucrose) with 1 mM PMSF. After sonication, the membrane-enriched fractions were centrifuged for 15 minutes at 2,000×g at 4° C. The supernatant was centrifuged again for 30 minutes at 43,000×g at 4° C. The final pellet was re-suspended in buffer A and stored at −80° C. The protein concentration of the purified membrane was determined by the Bradford method as described by the manual provided by Bio-Rad Laboratories, Inc., Hercules, Calif.
During the receptor binding experiments, 0.2˜8 μg of membrane fractions were incubated with 0.75 nM [^3H]CP55,940 and a test compound in the incubation buffer of 50 mM Tris-HCl, 5 mM MgCl2, 1 mM EDTA, 0.3% BSA, pH 7.4. The non-specific binding was determined by using 1 μM of CP55,940. The mixture was incubated for 1.5 hours at 30° C. in Multiscreen microplates (Millipore, Billerica, Mass.). At the completion of the incubation, the reaction was terminated by Manifold filtration and washed with ice-cold wash buffer (50 mM Tris, pH 7.4, 0.25% BSA) four times. The radioactivity bound to the filters was measured by Topcount (Perkin Elmer Inc.).

T1 sequence (P21554 whole entry): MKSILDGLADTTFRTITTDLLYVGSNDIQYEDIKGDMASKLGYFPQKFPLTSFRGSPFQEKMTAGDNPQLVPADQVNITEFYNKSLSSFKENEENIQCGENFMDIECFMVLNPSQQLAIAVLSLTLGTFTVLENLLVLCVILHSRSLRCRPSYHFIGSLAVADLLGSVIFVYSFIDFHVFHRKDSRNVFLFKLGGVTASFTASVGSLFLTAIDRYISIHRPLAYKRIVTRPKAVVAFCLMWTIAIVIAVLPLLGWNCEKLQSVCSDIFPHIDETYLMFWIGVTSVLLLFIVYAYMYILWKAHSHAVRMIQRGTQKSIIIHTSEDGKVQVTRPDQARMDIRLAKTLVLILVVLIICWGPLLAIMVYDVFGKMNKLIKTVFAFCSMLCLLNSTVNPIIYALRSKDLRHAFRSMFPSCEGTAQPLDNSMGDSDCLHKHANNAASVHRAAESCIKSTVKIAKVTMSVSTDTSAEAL

| Structure (SMILES) | inhibition at 10 µM |
| --- | --- |
| CCN(CC)C(=O)Cn1nnc(-c2ccccc2)c1-c1ccccc1 [Compound 2] | 22.6% |
| O=C(Cn1nnc(-c2ccccc2)c1-c1ccccc1)N1CCCCC1 [Compound 3] | 26.6% |
| CCCCOC(=O)Cn1cc(-c2ccccc2)nn1 [Compound 4] | 9.6% |
| CC(C)N(C(=O)Cn1nnc(-c2ccccc2)c1-c1ccccc1)C(C)C [Compound 5] | 18% |
| C=CCNC(=O)Cn1nnc(-c2ccccc2)c1-c1ccccc1 [Compound 7] | 15.4% |
| O=C(Cn1nnc(-c2ccccc2)c1-c1ccccc1)NN1CCCCC1 [Compound 8] | 12.3% |
| CNC(=O)Cn1nnc(-c2ccccc2)c1-c1ccccc1 [Compound 9] | 21.1% |
| O=C(Cn1nnc(-c2cccc(Cl)c2)c1-c1cccc(Cl)c1)N1CCCCC1 [Compound 11] | 20.4% |
| O=C(Cn1nnc(-c2ccc(F)c(Cl)c2)c1-c1ccc(F)c(Cl)c1)N1CCCCC1 [Compound 12] | 30.7% |
| CCCCOC(=O)Cn1nncc1-c1ccccc1 [Compound 13] | 22% |
| O=C(Cn1nnc(-c2ccccc2)c1-c1ccccc1)OCc1ccccc1 [Compound 15] | 35.4% |
| O=C(Cn1nnc(-c2ccc(Cl)cc2)c1-c1ccc(Cl)cc1)N1CCCCC1 [Compound 16] | 33% |
| O=C(Cn1nnc(-c2cc(Cl)cc(Cl)c2)c1-c1cc(Cl)cc(Cl)c1)N1CCCCC1 [Compound 17] | 25.9% |
| O=C(Cn1nnc(-c2cccc(F)c2)c1-c1cccc(F)c1)N1CCCCC1 [Compound 18] | 19.7% |
| CCCCOC(=O)CCn1nnc(-c2ccccc2)c1-c1ccccc1 [Compound 24] | 31.6% |
| O=C(NCCc1ccccc1)n1nc(-c2ccc(Cl)cc2Cl)c(-c2ccc(Cl)cc2Cl)n1 [Compound 27] | 46% |

| Structure (SMILES) | inhibition at 10 µM |
| --- | --- |
| CCCCOC(=O)Cn1nnc(-c2ccccc2)c1-c1ccc(C(=O)OC)cc1 [Compound 29] | 31.9% |
| CCC(CC)OC(=O)Cn1nnc(-c2ccc(Cl)cc2)c1-c1ccc(Cl)cc1 [Compound 33] | 24.6% |
| CCCCOC(=O)Cn1nnc(-c2ccc(C(F)(F)F)cc2)c1-c1ccc(C(F)(F)F)cc1 [Compound 35] | 46% |
| CCCCN(CCCC)C(=O)Cn1nnc(-c2ccccc2)c1-c1ccccc1 [Compound 38] | 23.8% |
| CCCCCCCCN(CCCCCCCC)C(=O)Cn1nnc(-c2ccccc2)c1-c1ccccc1 [Compound 39] | 4.1% |
| O=C(CCn1nnc(-c2ccccc2)c1-c1ccccc1)N1CCCCC1 [Compound 43] | 34.4% |
| CC(C)(C)OC(=O)NNC(=O)Cn1nnc(-c2ccccc2)c1-c1ccccc1 [Compound 44] | 14.1% |
| CCCCCCNC(=O)NNC(=O)Cn1nnc(-c2ccc(Cl)cc2)c1-c1ccc(Cl)cc1 [Compound 45] | 9.8% |
| O=C(Cn1nnc(-c2ccc(Cl)cc2Cl)c1-c1ccc(Cl)cc1)N1CCCCC1 [Compound 47] | 61.8% |
| CCCCOC(=O)Cn1nnc(-c2ccccc2F)c1-c1ccccc1 [Compound 48] | 36.1% |
| CCCCCCCCNC(=O)NNC(=O)Cn1nnc(-c2ccc(Cl)cc2)c1-c1ccc(Cl)cc1 [Compound 49] | 30.3% |
| CCCCCCCNC(=O)NNC(=O)Cn1nnc(-c2ccc(Cl)cc2)c1-c1ccc(Cl)cc1 [Compound 50] | 27.5% |
| CCCCCNC(=O)NNC(=O)Cn1nnc(-c2ccc(Cl)cc2)c1-c1ccc(Cl)cc1 [Compound 51] | 18.6% |
| O=C(Cn1nnc(-c2ccccc2)c1-c1ccccc1F)N1CCCCC1 [Compound 52] | 11% |
| CCCCCCCOC(=O)Cn1nnc(-c2ccc(Cl)cc2Cl)c1-c1ccc(Cl)cc1Cl [Compound 59] | 30.1% |
| O=C(Cn1nnc(-c2ccc(Cl)cc2Cl)c1-c1ccc(Cl)cc1Cl)N1CCCCC1 [Compound 60] | 55.7% |

The remaining lines, values ahead:

| inhibition at 10 µM | Structure (SMILES) |
| --- | --- |
| 40.8% | CCCCOC(=O)Cn1nnc(-c2ccccc2)c1-c1ccccc1 [Compound 1] |
| 50.5% | CCCCOC(=O)Cn1nnc(-c2ccc(Cl)c(Cl)c2)c1-c1ccc(Cl)c(Cl)c1 [Compound 6] |
| 20.3% | O=C(Cn1nnc(-c2ccc(Cl)c(Cl)c2)c1-c1ccc(Cl)c(Cl)c1)N1CCCCC1 [Compound 10] |
| 64.1% | CCCCOC(=O)Cn1nnc(-c2ccc(Cl)cc2)c1-c1ccc(Cl)cc1 [Compound 14] |
| 36.7% | CCCCOC(=O)Cn1nnc(-c2cccc(Cl)c2)c1-c1cccc(Cl)c1 [Compound 19] |
| 51.2% | CCCCCOC(=O)Cn1nnc(-c2ccc(Cl)cc2)c1-c1ccc(Cl)cc1 [Compound 20] |
| 15.7% | CCCCOC(=O)Cn1nnc(-c2ccc(F)c(Cl)c2)c1-c1ccc(F)c(Cl)c1 [Compound 21] |
| 27.1% | CCCCOC(=O)Cn1nnc(-c2cccc(F)c2)c1-c1cccc(F)c1 [Compound 22] |
| 29.9% | CCCCOC(=O)Cn1nnc(-c2cc(Cl)cc(Cl)c2)c1-c1cc(Cl)cc(Cl)c1 [Compound 23] |
| 53.6% | CCCCCCCOC(=O)Cn1nnc(-c2ccc(Cl)cc2)c1-c1ccc(Cl)cc1 [Compound 25] |
| 51.2% | CCCCCCCCOC(=O)Cn1nnc(-c2ccc(Cl)cc2)c1-c1ccc(Cl)cc1 [Compound 26] |
| 36.5% | CCCCCCOC(=O)Cn1nnc(-c2ccc(Cl)cc2)c1-c1ccc(Cl)cc1 [Compound 28] |
| 40% | CCCCOC(=O)Cn1nnc(-c2ccc(OC)cc2)c1-c1ccccc1 [Compound 30] |
| 18.9% | CCCCOC(=O)Cn1nnc(-c2ccccc2)c1-c1ccc(C#N)cc1 [Compound 31] |
| 28.3% | CCCOC(=O)Cn1nnc(-c2ccc(Cl)cc2)c1-c1ccc(Cl)cc1 [Compound 32] |
| 45.9% | CCCCOC(=O)Cn1nnc(-c2ccc(OC)cc2)c1-c1ccc(OC)cc1 [Compound 34] |
| 35.2% | CCCCOC(=O)Cn1nnc(-c2ccccc2)c1-c1ccc(Cl)cc1 [Compound 36] |
| 26.5% | CCCCOC(=O)Cn1nnc(-c2ccccc2)c1-c1ccc(C)cc1 [Compound 37] |
| 16.3% | CCCCOC(=O)Cn1nnc(-c2ccccc2)c1-c1ccc(C(F)(F)F)cc1 [Compound 40] |
| 14.7% | CCCCOC(=O)Cn1nnc(-c2ccccc2)c1-c1ccc([N+](=O)[O-])cc1 [Compound 41] |
| 35.6% | CCCCOC(=O)Cn1nnc(-c2ccccc2)c1-c1ccsc1 [Compound 42] |
| 50.8% | CCCCOC(=O)Cn1nnc(-c2ccc(Cl)cc2)c1-c1ccc(Cl)cc1Cl [Compound 46] |
| 68.7% | CCCCOC(=O)Cn1nnc(-c2ccc(Br)cc2)c1-c1ccc(Br)cc1 [Compound 53] |
| 71.7% | CCCCOC(=O)Cn1nnc(-c2ccc(Cl)cc2Cl)c1-c1ccc(Cl)cc1Cl [Compound 54] |
| 45.7% | CCCCCCOC(=O)Cn1nnc(-c2ccc(Cl)cc2)c1-c1ccc(Cl)cc1Cl [Compound 55] |
| 47.7% | CCCCCCOC(=O)Cn1nnc(-c2ccc(Cl)cc2Cl)c1-c1ccc(Cl)cc1 [Compound 56] |
| 55.7% | CCCCCCOC(=O)Cn1nnc(-c2ccc(Cl)cc2Cl)c1-c1ccc(Cl)cc1Cl [Compound 57] |
| 58.3% | CCCCCOC(=O)Cn1nnc(-c2ccc(Cl)cc2Cl)c1-c1ccc(Cl)cc1Cl [Compound 58] |
